These results are taken from patent publication US5186941A (priority 1991, dated 1993).

For data set [1] the following is noted: rat, in vivo.
The conditions of data set [2]: rat, in vivo. The source holds these as a separate data set.

On to `C[n+]1ccccc1/C=N/O` [2-PAMCl, 2-pralidoxime chloride], for which, in data set [1], the “duration of therapeutic plasma drug level (4.0 μg/ml plasma)” value is 21/4 and the “time until blood concentration drops below therapeutic level (TL)” value lay in the range of 2 to 3 h. For the same molecule, the “death of all animals, time after injection” value in data set [2] is at most 30 min.
